In ChEMBL document CHEMBL1159361, “(Z)-sarcodictyin A, a new highly cytotoxic diterpenoid from the soft coral Bellonella albiflora” (J Nat Prod, 2003):
Converted amounts (≈) assume the structure as drawn.

system: HeLa; assay: Cytotoxicity against human HeLa cells; type: functional, cell-based

SMILES | IC50 [µg/mL]
COC(=O)/C1=C/[C@@H]2[C@@H](C(C)C)CC=C(C)[C@@H]2C[C@H](OC(=O)/C=C\c2cn(C)cn2)[C@]2(C)C=C[C@@]1(O)O2 | 0.09 (≈ 0.181 µM)
CO[C@]12C=C[C@](C)(O1)[C@@H](OC(=O)/C=C\c1cn(C)cn1)C[C@H]1C(C)=CC[C@H](C(C)C)[C@H]1/C=C\2CO[C@@H]1OC[C@@H](O)[C@@H](O)[C@@H]1OC(C)=O | 0.017 (≈ 0.0259 µM)
CO[C@]12C=C[C@](C)(O1)[C@@H](OC(=O)/C=C/c1cn(C)cn1)C[C@H]1C(C)=CC[C@H](C(C)C)[C@H]1/C=C\2CO [ELEUTHEROBIN AGLYCON] | 0.09 (≈ 0.186 µM)
CO[C@]12C=C[C@](C)(O1)[C@@H](OC(=O)/C=C/c1cn(C)cn1)C[C@H]1C(C)=CC[C@H](C(C)C)[C@H]1/C=C\2CO[C@@H]1OC[C@@H](O)[C@@H](O)[C@@H]1OC(C)=O [ELEUTHEROBIN] | 0.017 (≈ 0.0259 µM)
CCOC(=O)/C1=C/[C@@H]2[C@@H](C(C)C)CC=C(C)[C@@H]2C[C@H](OC(=O)/C=C/c2cn(C)cn2)[C@]2(C)C=C[C@@]1(O)O2 [SARCODICTYIN B] | 0.09 (≈ 0.176 µM)
